The values below come from patent publication US7432045B2 (priority 2003, dated 2008).

Data set [1] relates to Vero, HeLa, CV-1PD, TM-1, DP-9, CEMx174, NIKS, W12E cells. Description: MTS assay, eight cell lines. As to conditions: eight cell lines. For orientation: Formazan colour is commonly taken as a measure of viable cells.
For a further data set, the system named is cornea. Description: In vivo peptide toxicity, cornea. Set-up: species or system BALB/C mice. On the procedure: (i) Cornea: Four-6-week-old female BALB/C mice (Harlan Sprague Dawley, Indianapolis, Ind.) were anesthetized by halothane inhalation (3-5%). A 2.0 μL drop of serum-free 5×DMEM solution containing 6.1 mM EB, 6.1 mM EBX, 7.5 mM TAT-C, 7.5 mM n50,51 TAT-C, 7.5 mM TAT-Cd, or 11.2 mM bHOMd or serum-free DMEM only (control) was then placed on the cornea and the mice were returned to their cages. Each group consisted of 5 mice, except for 11.2 mM bHOMd, and 7.5 mM TAT-Cd, which consisted of 4 mice. Only the right eye in each mouse received the peptide. Treatments were given 4 times per day at least 2 hrs apart for 7 days. On days 1, 5, and 7, the mice were examined microscopically for evidence of blepharitis, punctate keratopathy, dendrite ulceration and geographic ulceration. Damage to the corneal epithelium was assessed by staining with 1.0% […] and examination under a microscope with blue light. Blepharitis was scored: 1+ for noticeable puffy eyelids, 2+ for puffy eyelids with moderate crusting, 3+ for eye 50% swollen shut with severe crusting, and 4+ for eye totally swollen and crusted shut (Brandt et al., 1992). Punctate keratopathy, dendrite ulceration, and geographic ulceration were scored: 1+ for <25% of the cornea involved, 2+ for 25-50% involved, 3+ for 50-75% involved, and 4+ for >75% involved. The mean disease score for each group of mice on each day was calculated by the sum of disease scores in each group on each day divided by the numbers of mice in that group. On day 7, following the last treatment, the mice were sacrificed and the eyes were removed, fixed in 10% formalin, embedded in paraffin, sectioned (5μ each), and stained with hematoxylin and eosin as we have described previously (Brandt et al., 1996). Sections were then examined for evidence of damage to the cornea, sclera, lens, and retina.

A further data set relates to HSV-1 KOS mutant hrR3. Kind of data set: LacZ+ virus (hrR3) entry assay with pre-adsorbed virus (entry block). The data set is classed as cell-based. As to conditions: FIG. 7B; read-out: inhibition of entry of pre-adsorbed virus IC50. The protocol:
LacZ^+ virus (hrR3) entry assay: Confluent Vero cell cultures in 96-well microtiter plates were switched to Hepes-buffered serum-free DMEM, cooled on ice to 4° C. for 30 min, and infected with hrR3 for 1 hour at 4° C. in 40 μL of medium. Unattached virus was removed by rinsing with ice-cold medium. Treatments with antiviral peptide SEQ ID NO:1, referred to as EB, or a control peptide which comprised the RRKK tetra-peptide (SEQ ID NO:16) attached to a scrambled version of the membrane transiting peptide RRKKLAALPLVLAAPLAVLA (SEQ ID NO:17) (referred to as EBX), or mock-treatments with peptide-free medium were carried out in serum-free DMEM as indicated. Virus entry was initiated by transferring cultures to 37° C. To inactivate any remaining extracellular virus, cultures were rinsed with PBS and exposed to low pH citrate buffer (40 mM citric acid, 10 mM KCl, 135 mM NaCl, pH 3.0, according to Highlander et al., J. Virol. 61:3356 (1987), for 1 min at 23° C. The citrate was rinsed off with PBS and cultures were maintained in serum-supplemented DMEM until they were fixed with 0.5% gluteraldehyde in 5×PBS for 30 min at 23° C., stained for β-galactosidase activity for 1 hour or overnight at 23° C. with X-gal (Fisher Biotech; BP1615-1) in 1×PBS containing […], 1.3 mM K4Fe(CN)6, and 1.3 mM K3Fe(CN)6, and scored for the presence of blue […] cells.
In these studies, the hrR3 virus was pre-adsorbed to cells for 1 hour at 4° C. before ice cold 25 μM EB or EBX were added in serum-free DMEM. After an additional 1 hour at 4° C., cultures were shifted to 37° C. to initiate virus entry. At 15 min intervals following the temperature shift, any virus remaining outside the cells was inactivated by washing the cultures with low pH citrate buffer. Cultures were then rinsed and returned to peptide-free serum-supplemented DMEM until they were fixed and stained for β-galactosidase 8 hours after the temperature shift.
Two assays were used to assess the ability of the TAT peptides to inhibit infection of Vero cells with the hrR3 virus. In both assays, the virus was preadsorbed to cells at 4° C. and entry was initiated in the presence of peptide by shifting the cultures to a permissive temperature (30-37° C.). One hour later, the peptide was rinsed off. The entry blocking activity was measured in half of the cultures, in which any extracellular virus remaining after the peptide treatment was inactivated with low pH citrate buffer. The rest of the cultures were exposed to PBS instead of citrate buffer and used to measure virus inactivation. Virus inactivation depended on persistent effects of the peptide lasting for a period of eight hours. At the end of that period, all cultures were fixed and infected cells were detected by staining with X-gal.
Virus (m.o.i.=0.025) was preadsorbed to Vero cells for 1 h at 4° C. before cultures were exposed to TAT-C (FIG. 15A), bTAT-9X (FIG. 15B), or n50,51TAT-C (FIGS. 15C, 15D) for 1 h at 33 (FIGS. 15A, 15B), 31 (FIG. 15C), or 37° C. (FIG. 15D). […] Inhibition of entry was measured in the citrate-treated cultures, in which any remaining external virus was inactivated immediately following exposure to peptide (●). Persistent virus inactivation lasting, at least in part, for the 8 h period following exposure to peptide, was measured in the PBS-treated cultures (◯). The IC50s measured in these experiments are included in Table 5.

The next data set in a line: in vitro. To be noted: African green monkey.
Data set [2] has as its system influenza A virus (Sydney 05/97,H3N2).
Data set [3] relates to HSV-1 KOS. As to conditions: data not shown.
In data set [4] the test system is HSV-1 KOS. Description: Plaque reduction assay. The data set is classed as cell-based. On the procedure: Cell culture and virus: The procedures for growing Vero cells and preparing high titer stocks of HSV-1 KOS as described in Grau et al., Invest. Ophthal. and Vis. Sci. 30: 2474 (1989) were utilized. Vero cells were maintained in carbonate-buffered DMEM supplemented with 5% calf serum and 5% fetal bovine serum (regular medium). For some studies, cells were switched to serum-free DMEM buffered with 25 mM HEPES (pH 7.4) and allowed to adapt to that medium for 30 min prior to experimental treatments. Vero cells were seeded into wells (0.28 cm^2) of microtiter plates either at 3.5×10^4 cells/well for use 1 day later (8×10^4 cells/well) or at 1×10^4 cells/well for use 3 days later (2×10^5 cells/well).
Plaque reduction assay: Confluent Vero cell cultures in microtiter plates were infected for 1 hour at 37° C. in 40 μL of medium. Except where indicated, peptide treatments in 40 μL of medium lasted from 1 hour before through 1 hour after infection. At the end of the adsorption period, the cultures were re-fed with 100 μL of regular medium. Plaque formation was scored 2 days later and the number of plaques scored per well was normalized to the number counted in the absence of peptide. Using an ocular micrometer, plaque size (π/2×L×S) was determined by measuring the largest plaque diameter (L) and the diameter at a 90° angle to that (S). The size of each of the first 40 scored plaques was measured except when a plaque included less than 10 rounded cells or touched the side of the well.
A general note: Plaques are areas of infected cells; plaque reduction assays count them against a control.

pIC50: −log10 of the molar value. Square brackets hold non-standard residues; d marks the D form. Peptide text beside a SMILES is read from it. * marks the point of attachment. Biotin = O=C1N[C@H]2[C@H](CS[C@H]2CCCCC(=O)*)N1; Ahx = NCCCCCC(=O)O

The pIC50 is the IC50 on a negative log10 scale, so that one unit is a factor of ten. For `CC(C)C[C@H](NC(=O)[C@H](CCCCN)NC(=O)[C@H](CCCCN)NC(=O)[C@H](CCCNC(=N)N)NC(=O)[C@@H](N)CCCNC(=N)N)C(=O)N[C@@H](C)C(=O)N[C@@H](C)C(=O)N[C@@H](CC(C)C)C(=O)N1CCC[C@H]1C(=O)N[C@@H](CC(C)C)C(=O)N[C@H](C(=O)N[C@@H](CC(C)C)C(=O)N[C@@H](C)C(=O)N[C@@H](C)C(=O)N1CCC[C@H]1C(=O)N[C@@H](CC(C)C)C(=O)N[C@@H](C)C(=O)N[C@H](C(=O)N[C@@H](CC(C)C)C(=O)N[C@@H](C)C(=O)O)C(C)C)C(C)C` [EBX, RRKKLAALPLVLAAPLAVLA, reference compound] (H-RRKKLAALPLVLAAPLAVLA-OH), the “cytotoxicity to cells (MTS), overall” value in data set [1] was “generally not cytotoxic”. Besides, the corneal pathology result in the data set on cornea (mouse, in vivo) is recorded as “no evidence of corneal pathology”. In addition, the cytotoxic effects result in the data set with Vero cells is recorded as “No cytotoxic effects”. The pIC50 in the data set on HSV-1 KOS mutant hrR3 is around 4.00.
The compound `CC[C@H](C)[C@H](NC(=O)[C@H](CCCCN)NC(=O)[C@@H](NC(=O)[C@H](CCC(N)=O)NC(=O)[C@H](CCCNC(=N)N)NC(=O)CCCCCNC(=O)CCCC[C@@H]1SC[C@@H]2NC(=O)N[C@@H]21)[C@@H](C)CC)C(=O)N[C@@H](Cc1c[nH]c2ccccc12)C(=O)N[C@@H](Cc1ccccc1)C(=O)N1CCC[C@H]1C(=O)N[C@@H](CC(N)=O)C(=O)N[C@@H](CCCNC(=N)N)C(=O)N[C@@H](CCCNC(=N)N)C(=O)N[C@@H](CCSC)C(=O)N[C@@H](CCCCN)C(=O)N[C@@H](Cc1c[nH]c2ccccc12)C(=O)N[C@@H](CCCCN)C(=O)N[C@@H](CCCCN)C(=O)N1CCC[C@H]1C(=O)NCC(=O)N[C@@H](Cc1ccc(O)cc1)C(=O)N[C@@H](C)C(=O)NCC(=O)N[C@@H](C)C(=O)N[C@H](C(=O)N[C@H](C(=O)N[C@@H](CC(N)=O)C(=O)N[C@@H](CC(=O)O)C(=O)N[C@@H](CC(C)C)C(=O)O)C(C)C)C(C)C` [bHOM-9, b - RQIKIWFPNRRMKWKK-9] ({Biotin-Ahx}-RQIKIWFPNRRMKWKKPGYAGAVVNDL-OH) showed a pIC50 in “in vitro” of 4.30. Further, the “antiviral effect against influenza A virus versus cytotoxic effects” value in [2] is “antiviral and cytotoxic effects were inseparable”.
For `CC[C@@H](C)[C@@H](NC(=O)[C@@H](CCCCN)NC(=O)[C@H](NC(=O)[C@@H](CCC(N)=O)NC(=O)[C@@H](CCCNC(=N)N)NC(=O)CCCCCNC(=O)CCCC[C@@H]1SC[C@@H]2NC(=O)N[C@@H]21)[C@H](C)CC)C(=O)N[C@H](Cc1c[nH]c2ccccc12)C(=O)N[C@H](Cc1ccccc1)C(=O)N1CCC[C@@H]1C(=O)N[C@H](CC(N)=O)C(=O)N[C@H](CCCNC(=N)N)C(=O)N[C@H](CCCNC(=N)N)C(=O)N[C@H](CCSC)C(=O)N[C@H](CCCCN)C(=O)N[C@H](Cc1c[nH]c2ccccc12)C(=O)N[C@H](CCCCN)C(=O)N[C@H](CCCCN)C(N)=O` [bHOMd, b - RQIKIWFPNRRMKWKK-amide] ({Biotin-Ahx}-[dR][dQ][dI][dK][dI][dW][dF][dP][dN][dR][dR][dM][dK][dW][dK][dK]-NH2), the “cytotoxic effects (trypan blue staining)” value in the data set on MDCK cells is on record as “No cytotoxic effects”. Moreover, in the data set on cornea (calcein staining), the punctate keratopathy result is “very mild punctate keratopathy”. In addition, in the data set on cornea (four times a day for seven days), the blepharitis result is “mild blepharitis”. Further, the “antiviral effect against influenza A virus versus cytotoxic effects” value in data set [2] is “blocks influenza A virus in the absence of cytotoxic effects”.
Regarding `CC(C)C[C@H](NC(=O)[C@H](C)NC(=O)[C@H](CCCCN)NC(=O)[C@H](CC(C)C)NC(=O)[C@H](C)NC(=O)[C@H](CC(C)C)NC(=O)[C@H](CCCCN)NC(=O)[C@H](CC(C)C)NC(=O)[C@H](C)NC(=O)[C@H](CC(C)C)NC(=O)[C@H](CCCCN)NC(=O)CCCCCNC(=O)CCCC[C@@H]1SC[C@@H]2NC(=O)N[C@@H]21)C(=O)N[C@@H](CCCCN)C(=O)N[C@@H](C)C(=O)N[C@@H](C)C(=O)N[C@@H](CC(C)C)C(=O)N[C@@H](CCCCN)C(=O)N[C@@H](CC(C)C)C(=O)N[C@@H](C)C(N)=O` [bKLA, b - KLALKLALKALKAALKLA-amide], in “in vitro”, the pIC50 was 4.82. In the data set on MDCK cells, the “cytotoxic effects (trypan blue staining)” value is given as “No cytotoxic effects”.
Turning to “NH2 - RRKKAAVALLAVLLALLAPP-COOH (H-RRKKAAVALLAVLLALLAPP-OH) [EBPP]”, the “activity compared to EB in yield reduction assay” value in the data set with HSV-1 KOS [3] is reported as “twice as active”. Besides, the “antiviral activity compared to EB” value in the data set with HSV-1 KOS [4] is listed as “twice as active”.
